Patent US10450279B2 (priority 2014, dated 2019)

Columns and labels:
Assay type in all cases: cell-based
Details in all cases: relative growth vs active compound-free control (100%), 405 nm, 7 days after inoculation
[1] = system: Botrytis cinerea; test: Activity against the grey mold Botrytis cinerea in the microtiterplate test (Botrci)
[2] = system: Pyricularia oryzae
[3] = system: Septoria tritici; test: Activity against leaf blotch on wheat caused by Septoria tritici (Septtr), microtiterplate test

| Structure (SMILES) | Growth (%) at 31 ppm Botrci [1] [%] | Growth (%) at 31 ppm Pyrior [2] [%] | Growth (%) at 8 ppm Septtr [3] [%] |
| --- | --- | --- | --- |
| CC(O)(Cn1cncn1)c1ccc(Oc2ccc(Cl)cc2)cc1C(F)(F)F (stereo not drawn) [compound 24] | 0 | 0 | 0 |
| CC(O)(Cn1cncn1)c1ccc(Oc2ccc(Cl)cc2Cl)cc1C(F)(F)F (stereo not drawn) [compound 25] | 3 | 2 | 0 |
| CC(O)(Cn1cncn1)c1ccc(Oc2ccccc2C(F)(F)F)cc1C(F)(F)F (stereo not drawn) [compound 26] | – | – | 1 |
| CC(O)(Cn1cncn1)c1ccc(Oc2ccc(C(F)(F)F)cc2)cc1C(F)(F)F (stereo not drawn) [compound 27] | 18 | 1 | 0 |
| CC(O)(Cn1cncn1)c1ccc(Oc2ccc(F)cc2)cc1C(F)(F)F (stereo not drawn) [compound 28] | 0 | 7 | 0 |
| CC(O)(Cn1cncn1)c1ccc(Oc2ccc(F)cc2F)cc1C(F)(F)F (stereo not drawn) [compound 29] | 0 | 0 | 5 |
| CC(O)(Cn1cncn1)c1ccc(Oc2ccc(Cl)cc2)cc1Cl (stereo not drawn) [compound 31] | 3 | 2 | 0 |
| CC(O)(Cn1cncn1)c1ccc(Oc2ccc(Cl)cc2Cl)cc1Cl (stereo not drawn) [compound 32] | 9 | 3 | 12 |
| CC(O)(Cn1cncn1)c1ccc(Oc2ccc(F)cc2)cc1Cl (stereo not drawn) [compound 33] | 0 | 0 | 1 |
| CC(O)(Cn1cncn1)c1ccc(Oc2ccc(F)cc2F)cc1Cl (stereo not drawn) [compound 34] | 1 | 0 | 0 |
| CC(O)(Cn1cncn1)c1ccc(Oc2ccccc2C(F)(F)F)cc1Cl (stereo not drawn) [compound 35] | 1 | 1 | 0 |
| CC(O)(Cn1cncn1)c1ccc(Oc2ccc(C(F)(F)F)cc2)cc1Cl (stereo not drawn) [compound 36] | – | 14 | – |
| OC(Cn1cncn1)(c1ccc(Oc2ccc(F)cc2)cc1Cl)C1CC1 (stereo not drawn) [compound 37] | 1 | 1 | 0 |
| OC(Cn1cncn1)(c1ccc(Oc2ccccc2C(F)(F)F)cc1Cl)C1CC1 (stereo not drawn) [compound 38] | 2 | 1 | 1 |
| OC(Cn1cncn1)(c1ccc(Oc2ccc(Cl)cc2Cl)cc1Cl)C1CC1 (stereo not drawn) [compound 39] | 0 | 2 | 14 |
| OC(Cn1cncn1)(c1ccc(Oc2ccc(C(F)(F)F)cc2)cc1Cl)C1CC1 (stereo not drawn) [compound 40] | 8 | 1 | 2 |
| OC(Cn1cncn1)(c1ccc(Oc2ccc(F)cc2F)cc1Cl)C1CC1 (stereo not drawn) [compound 41] | 1 | 0 | 0 |
| OC(Cn1cncn1)(c1ccc(Oc2ccc(Cl)cc2)cc1Cl)C1CC1 (stereo not drawn) [compound 42] | 3 | 1 | 0 |
| CC(C)(C)C(O)(Cn1cncn1)c1ccc(Oc2ccc(Cl)cc2)cc1 (stereo not drawn) [compound 43] | 3 | – | 0 |
| CC(C)(C)C(O)(Cn1cncn1)c1ccc(Oc2ccc(F)cc2)cc1 (stereo not drawn) [compound 44] | 1 | 0 | 0 |
| CC(C)(C)C(O)(Cn1cncn1)c1ccc(Oc2ccc(F)cc2F)cc1 (stereo not drawn) [compound 45] | 0 | 1 | 0 |
| CC(C)(C)C(O)(Cn1cncn1)c1ccc(Oc2ccc(Cl)cc2Cl)cc1 (stereo not drawn) [compound 46] | 6 | 2 | 4 |
| CC(C)(C)C(O)(Cn1cncn1)c1ccc(Oc2ccccc2C(F)(F)F)cc1 (stereo not drawn) [compound 47] | 15 | 1 | 0 |
| CC(C)(C)C(O)(Cn1cncn1)c1ccc(Oc2ccc(C(F)(F)F)cc2)cc1 (stereo not drawn) [compound 48] | – | 1 | 0 |
| CCC(O)(Cn1cncn1)c1ccc(Oc2ccc(Cl)cc2)cc1Cl (stereo not drawn) [compound 49] | 2 | 1 | 3 |
| CCC(O)(Cn1cncn1)c1ccc(Oc2ccc(F)cc2)cc1Cl (stereo not drawn) [compound 50] | 2 | 9 | 0 |
| CCC(O)(Cn1cncn1)c1ccc(Oc2ccc(F)cc2F)cc1Cl (stereo not drawn) [compound 51] | 0 | 0 | 0 |
| CCC(O)(Cn1cncn1)c1ccc(Oc2ccc(Cl)cc2Cl)cc1Cl (stereo not drawn) [compound 52] | 3 | 1 | 0 |
| CCC(O)(Cn1cncn1)c1ccc(Oc2ccccc2C(F)(F)F)cc1Cl (stereo not drawn) [compound 53] | 3 | 2 | 0 |
| CCC(O)(Cn1cncn1)c1ccc(Oc2ccc(C(F)(F)F)cc2)cc1Cl (stereo not drawn) [compound 54] | 4 | 2 | 0 |
